Measurements published in patent EP1621631A1, “Method for the production of C6 and/or C9 aldehydes and alcohols in plants by 9/13 divinyl ether synthase” (Georg-August-Universität Göttingen, priority 2004, dated 2006).

What was measured:
[1] = tested on: 9/13-Divinylethersynthase aus Knoblauch; test: Photometric determination of the substrate specificity of 9/13-DES; format: biochemical; details: purified 9/13-DES; 100 µM hydroperoxide; room temperature; decrease of extinction at 234 or 236 nm over one minute
Method: Für die Bestimmung der Substratspezifität wurde die 9/13-Divinylethersynthase aus Knoblauch aus einer Expressionskultur aufgereinigt. Dazu wurde zunächst eine 400 ml Expressionskultur unter den schon vorher beschriebenen Bedingungen angeimpft und angezogen. Die Zellen wurden nach zweitägiger Inkubation durch 15-minütige Zentrifugation mit 4000 g bei 4°C sedimentiert. Das Sediment wurde in 20 ml 50 mM Na-Phosphat, pH 8, resuspendiert und mit Ultraschall (Sonopuls GM 70, Bandelin, Berlin) für 5-Mal eine Minute bei 50 % Leistung und 50 % Impuls aufgeschlossen. Die Zelltrümmer wurden 15 min bei 4000 x g sedimentiert und aus dem Überstand wurden durch eine weitere Zentrifugation (1 h bei 100000 x g) die Zellmembranen sedimentiert. Das Membransediment wurde für 1 h in 50 mM Na-Phosphat, pH 8, mit 1M NaCl und 0,1 % (v/v) TritonX-100 inkubiert, um die Membranproteine zu solubilisieren. Anschließend wurde erneut 1 h bei 100000 x g zentrifugiert. Der Überstand wurde mit Talon Metal Affinity Resin (Clontech, Palo Alto, USA) (200 µl Bettvolumen) über Nacht bei 4 °C geschüttelt. Danach wurde das Material auf eine Leersäule (T.J. Baker, Phillipsburg, N.J., USA) gegeben. Die Elution erfolgte mit 3 ml 50 mM Tris/HCl pH 6,3, 10 % Glycerin, 0,1 % Tween 20, 0,5 M NaCl und 0,1 M EDTA. Durch eine PD-10 Säule (Amersham pharmacia biotech, UK) wurde das Protein in 50 mM Na-Phosphat-Puffer pH 8 umgepuffert.
Das so aufgereinigte Protein wurde für die Tests im Photometer eingesetzt. Die Messungen erfolgten bei Raumtemperatur und es wurde immer bei der Wellenlänge des eingesetzten Hydroperoxids (234 bzw. 236 nm) bei einer Konzentration 100 µM für eine Minute die Abnahme der Extinktion aufgezeichnet. Die Messungen erfolgten in einer 100 µl Quarzküvette. Die Reaktion wurde durch die Zugaben von 1 µl der Proteinlösung gestartet.

9/13-DES = test: Determination of the pH optimum of 9/13-DES (endpoint determination by normal-phase and reversed-phase HPLC); format: biochemical, Knoblauch; details: substrate of recombinant 9/13-DES; pH 5,5 bis 8,6; no pH optimum could be determined
Method: Das pH-Optimum wurde mittels einer Endpunktbestimmung mit Hilfe der Normal-Phasen-HPLC und der Umkehr-Phasen-HPLC ermittelt. Es wurden sowohl 9-HPOD als auch 13-HPOD als Substrate der DES verwendet. Für die Bestimmung des pH-Optimums wurde die Umsetzung bei pH-Werten von 4,5 bis 8,5 in Schritten von 0,5 pH-Einheiten durchgeführt. Für pH 7 wurden zweimal drei Messungen durchgeführt, da für diesen pH-Wert sowohl ein 50 mM Natrium-Phosphatpuffer als auch ein 50 mM Tris/HCl-Puffer verwendet wurde. Für die Umsetzungen wurden zwischen 25 und 80 nmol der Hydroperoxide eingesetzt. Von dem einzelnen Hydroperoxid wurde dabei immer die gleiche Menge für jede Umsetzung eingesetzt. Parallel zu den Proben für den pH-Optimumstest wurden drei Ansätze mit Zelllysat des leeren Vektors in E. coli mit 13-HPOD inkubiert. Die Leervektorkontrolle zeigte keine Divinylether-Bildung, es konnte nur das Hydroperoxid nachgewiesen werden.

| SMILES | Substratspezifität (Umsetzung durch 9/13-DES) [1] | Umsetzung über den pH-Bereich (9/13-DES) |
| --- | --- | --- |
| CC/C=C\C/C=C\C=C\[C@H](CCCCCCCC(=O)O)OO [9-HPOT, (9S, 10E, 12Z, 15Z)-9-Hydroperoxy-10,12,15-Octadecatriensäure] | wesentlich weniger stark umgesetzt |  |
| CCCCC/C=C\C=C\[C@H](CCCCCCCC(=O)O)OO [9-HPOD, (9S, 10E, 12Z)-9-Hydroperoxy-10,12-Octadecadiensäure] | in etwas geringerem Maße | gleich gut umgesetzt |
| CC/C=C\C[C@@H](/C=C/C=C\CCCCCCCC(=O)O)OO [13-HPOT, (9Z, 11E, 13S, 15Z)-13-Hydroperoxy-9,11,15-Octadecatriensäure] | wesentlich weniger stark umgesetzt |  |
| CCCCC[C@@H](/C=C/C=C\CCCCCCCC(=O)O)OO [13-HPOD, (13S, 9Z, 11E)-13-Hydroperoxy-9,11-Octadecadiensäure] | bevorzugt |  |
